For 12 compounds, TGI results are on record in PubChem BioAssay (NCI).

Among the test systems are HCC-2998 colon; SNB-19 CNS; MDA-MB-435; SF-268 CNS; SR leukemia; NCI-H460 lung; SK-MEL-2 melanoma; CCRF-CEM leukemia; UO-31 renal; SK-OV-3 ovarian; EKVX NSCLC.
Assay in all cases: DTP human tumour cell line panel, 48 h

Each structure is given as a SMILES string.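 Cells were grown in 96-well plates and exposed to each compound for 48 hours at five concentrations; endpoints were interpolated linearly between bracketing concentrations, or set to the highest concentration if not reached. Definition used: TGI = concentration required for complete inhibition of growth.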 Bounds are passed on as bounds.

`CC(C)=CCCC(C)(OC1OC(CO)C(O)C(O)C1O)C1CCC2(C)C1C(O)CC1C3(C)CCC(O)C(C)(C)C3C(OC3OC(CO)C(O)C(O)C3OC3OC(C)C(O)C(O)C3O)CC12C` (configuration not stated) (tested in a mixture with another compound): the total growth inhibition concentration (TGI) is more than 75 µM with HCC-2998 colon; more than 75 µM with SNB-19 CNS; more than 75 µM in the assay on MDA-MB-435; more than 75 µM in the assay with SF-268 CNS; more than 75 µM in the assay with SR leukemia; more than 7.5 µM with NCI-H460 lung. Also, the TGI in the assay on SK-MEL-2 melanoma, in the assay with CCRF-CEM leukemia, with UO-31 renal, with SK-OV-3 ovarian and in the assay on EKVX NSCLC was more than 75 µM throughout.

For `CSc1nc(=S)[nH]c2c1c(C)nn2-c1ccccc1`, the TGI in the assay on HCC-2998 colon is more than 100 µM; with SNB-19 CNS, more than 100 µM; in the assay with MDA-MB-435 it was more than 100 µM; in the assay on SF-268 CNS it was more than 100 µM; in the assay on SR leukemia, 42.8 µM; in the assay on NCI-H460 lung it was 58.9 µM. In addition, the TGI with SK-MEL-2 melanoma is 68.5 µM; with CCRF-CEM leukemia, 49 µM; in the assay on UO-31 renal, 69.8 µM; in the assay on SK-OV-3 ovarian it was 90.3 µM; in the assay with EKVX NSCLC it was 46.6 µM.

For `CC(C)/C=C1\CCC(CN(C)C)C1=O` (configuration not stated), the TGI in the assay with HCC-2998 colon was found to be 19.1 µM; with SNB-19 CNS, 21.6 µM; in the assay on MDA-MB-435 it was 3.01 µM; in the assay on SF-268 CNS it was 38.8 µM; with SR leukemia, 4.53 µM; in the assay on NCI-H460 lung it was 40.1 µM. Also, the TGI with SK-MEL-2 melanoma is 14.3 µM; with CCRF-CEM leukemia, 5.34 µM; with UO-31 renal it was 16.5 µM; in the assay with SK-OV-3 ovarian it was 32.4 µM; with EKVX NSCLC, 15.5 µM.

Consider `CC(CSC(=N)N)C(N)=O` (configuration not stated), for which the TGI with HCC-2998 colon, with SNB-19 CNS, in the assay with MDA-MB-435, with SF-268 CNS, with SR leukemia and with NCI-H460 lung was more than 100 µM each time. Besides, the TGI in the assay with SK-MEL-2 melanoma, in the assay on CCRF-CEM leukemia, in the assay with UO-31 renal, with SK-OV-3 ovarian and with EKVX NSCLC was more than 100 µM each time.

As to `COC(=O)C1(NC(=O)C(Cc2ccccc2)N(C(=O)OC(C)(C)C)C(=O)OC(C)(C)C)CCCC1` (configuration not stated), the TGI in the assay on HCC-2998 colon is more than 100 µM; in the assay with SNB-19 CNS, more than 100 µM; with MDA-MB-435 it was more than 100 µM; in the assay on SF-268 CNS, more than 100 µM; in the assay on SR leukemia it was more than 10 µM; in the assay on NCI-H460 lung, more than 100 µM. Further, the TGI with SK-MEL-2 melanoma, in the assay with CCRF-CEM leukemia, in the assay on UO-31 renal, with SK-OV-3 ovarian and with EKVX NSCLC was more than 100 µM each time.

On to `COc1nc(N=P(c2ccccc2)(c2ccccc2)c2ccccc2)cc(=O)n1C`, for which the concentration for total growth inhibition (TGI) in the assay on HCC-2998 colon, in the assay with SNB-19 CNS, in the assay with MDA-MB-435, in the assay with SF-268 CNS, with SR leukemia and in the assay on NCI-H460 lung was more than 100 µM each time. The TGI in the assay on SK-MEL-2 melanoma, in the assay with CCRF-CEM leukemia, in the assay on UO-31 renal, with SK-OV-3 ovarian and in the assay with EKVX NSCLC was more than 100 µM in each case.

In the case of `O=C1N/C(=N\N=C\c2ccccc2)C(c2ccccc2)O1` (configuration not stated), the TGI with HCC-2998 colon, in the assay with SNB-19 CNS, with MDA-MB-435, with SF-268 CNS, in the assay with SR leukemia and with NCI-H460 lung was more than 100 µM in each case. Moreover, the TGI with SK-MEL-2 melanoma is more than 100 µM; with CCRF-CEM leukemia, 49.4 µM; in the assay with UO-31 renal, 33.5 µM; in the assay with SK-OV-3 ovarian it was more than 100 µM; in the assay with EKVX NSCLC, more than 100 µM.

On to `O=C/C(=C1/C=Cc2cc([N+](=O)[O-])ccc2S1)c1ccccc1`, for which the TGI in the assay on HCC-2998 colon, in the assay on SNB-19 CNS, in the assay on MDA-MB-435, in the assay with SF-268 CNS, in the assay with SR leukemia and in the assay with NCI-H460 lung was more than 100 µM each time. The TGI in the assay on SK-MEL-2 melanoma, in the assay on CCRF-CEM leukemia, in the assay on UO-31 renal, in the assay on SK-OV-3 ovarian and with EKVX NSCLC was more than 100 µM throughout.

Consider `COC(=O)c1ccc2c(c1)CC1(C2)Cc2cc3c(cc2C1)CCC3`, for which the TGI in the assay with HCC-2998 colon, with SNB-19 CNS, in the assay on MDA-MB-435, in the assay with SF-268 CNS, in the assay on SR leukemia and with NCI-H460 lung was more than 100 µM throughout. The TGI in the assay on SK-MEL-2 melanoma, in the assay on CCRF-CEM leukemia, with UO-31 renal, in the assay with SK-OV-3 ovarian and in the assay with EKVX NSCLC was more than 100 µM throughout.

Consider `O=[N+]([O-])c1ccc(SN=S=NSc2cccc(SN=S=NSc3ccc([N+](=O)[O-])cc3)c2)cc1`, for which the TGI in the assay with HCC-2998 colon was more than 100 µM; in the assay with SNB-19 CNS, more than 100 µM; in the assay with MDA-MB-435 it was 71.2 µM; with SF-268 CNS, more than 100 µM; in the assay with SR leukemia, more than 100 µM; in the assay with NCI-H460 lung it was more than 100 µM. Also, the TGI is 34.1 µM with SK-MEL-2 melanoma; 42.5 µM in the assay with CCRF-CEM leukemia; 70.2 µM in the assay with UO-31 renal; more than 100 µM in the assay on SK-OV-3 ovarian; more than 100 µM in the assay on EKVX NSCLC.

Take `CNC(=O)c1n[nH]n(C2CCCCC2)c1=S`: the TGI in the assay with HCC-2998 colon, in the assay on SNB-19 CNS, in the assay on MDA-MB-435, in the assay with SF-268 CNS, in the assay with SR leukemia and in the assay with NCI-H460 lung was more than 100 µM throughout. For the same compound, the TGI with SK-MEL-2 melanoma, with CCRF-CEM leukemia, with UO-31 renal, with SK-OV-3 ovarian and in the assay on EKVX NSCLC was more than 100 µM throughout.

On to `O=C1CCN2c3ccccc3[C@H]3Cc4cccc(c4[C@@H]2C3)CCO1`, for which the TGI is more than 100 µM in the assay with HCC-2998 colon; more than 100 µM in the assay with SNB-19 CNS; more than 100 µM in the assay with MDA-MB-435; more than 100 µM in the assay with SF-268 CNS; 74.6 µM in the assay with SR leukemia; more than 100 µM with NCI-H460 lung. In addition, the TGI in the assay with SK-MEL-2 melanoma was more than 100 µM; with CCRF-CEM leukemia, more than 100 µM; in the assay on UO-31 renal it was 76.4 µM; with SK-OV-3 ovarian it was more than 100 µM; with EKVX NSCLC, more than 100 µM.

Usually TGI stands for the concentration giving total growth inhibition.
